Data from patent EP3002287B1, “Thiochromeno[2,3-c]quinolin-12-one derivatives and their use as topoisomerase inhibitors” (National Defense Medical Center, priority 2014, dated 2016).

Key:
Experiment in all cases: NCI in vitro 60-cell drug screen (SRB assay)
Type in all cases: cell-based
NCI-H460 = NCI-H460 (Non-small cell lung cancer); 10^-5 molar concentration; 48 hours
MDA-MB-435 = MDA-MB-435 (Melanoma); 10^-5 molar concentration; 48 hours
SW-620 = SW-620 (Colon cancer); 10^-5 molar concentration; 48 hours
BT-549 = BT-549 (Breast cancer); 10^-5 molar concentration; 48 hours
DU-145 = DU-145 (Prostate cancer); 10^-5 molar concentration; 48 hours
K-562 = K-562 (Leukemia); 10^-5 molar concentration; 48 hours
RXF 393 = RXF 393 (Renal cancer); 10^-5 molar concentration; 48 hours
NCI-H226 = NCI-H226 (Non-small cell lung cancer); 10^-5 molar concentration; 48 hours
T-47D = T-47D (Breast cancer); 10^-5 molar concentration; 48 hours
OVCAR-5 = OVCAR-5 (Ovarian cancer); 10^-5 molar concentration; 48 hours
IGROV1 = IGROV1 (Ovarian cancer); 10^-5 molar concentration; 48 hours
SF-539 = SF-539 (CNS cancer); 10^-5 molar concentration; 48 hours
HL-60(TB) = HL-60(TB) (Leukemia); 10^-5 molar concentration; 48 hours
A498 = A498 (Renal cancer); 10^-5 molar concentration; 48 hours
NCI-H23 = NCI-H23 (Non-small cell lung cancer); 10^-5 molar concentration; 48 hours
HCT-15 = HCT-15 (Colon cancer); 10^-5 molar concentration; 48 hours
SK-OV-3 = SK-OV-3 (Ovarian cancer); 10^-5 molar concentration; 48 hours
NCI/ADR-RES = NCI/ADR-RES (Ovarian cancer); 10^-5 molar concentration; 48 hours
MOLT-4 = MOLT-4 (Leukemia); 10^-5 molar concentration; 48 hours
U251 = U251 (CNS cancer); 10^-5 molar concentration; 48 hours
SK-MEL-2 = SK-MEL-2 (Melanoma); 10^-5 molar concentration; 48 hours
A549/ATCC = A549/ATCC (Non-small cell lung cancer); 10^-5 molar concentration; 48 hours
ACHN = ACHN (Renal cancer); 10^-5 molar concentration; 48 hours
COLO 205 = COLO 205 (Colon cancer); 10^-5 molar concentration; 48 hours
SK-MEL-5 = SK-MEL-5 (Melanoma); 10^-5 molar concentration; 48 hours
OVCAR-3 = OVCAR-3 (Ovarian cancer); 10^-5 molar concentration; 48 hours
MCF7 = MCF7 (Breast cancer); 10^-5 molar concentration; 48 hours
SF-268 = SF-268 (CNS cancer); 10^-5 molar concentration; 48 hours
HCT-116 = HCT-116 (Colon cancer); 10^-5 molar concentration; 48 hours
NCI-H522 = NCI-H522 (Non-small cell lung cancer); 10^-5 molar concentration; 48 hours
UACC-62 = UACC-62 (Melanoma); 10^-5 molar concentration; 48 hours
CCRF-CEM = CCRF-CEM (Leukemia); 10^-5 molar concentration; 48 hours
786-0 = 786-0 (Renal cancer); 10^-5 molar concentration; 48 hours

SMILES	Growth percent (NCI-H460)	Growth percent (MDA-MB-435)	Growth percent (SW-620)	Growth percent (BT-549)	Growth percent (DU-145)	Growth percent (K-562)	Growth percent (RXF 393)	Growth percent (NCI-H226)	Growth percent (T-47D)	Growth percent (OVCAR-5)	Growth percent (IGROV1)	Growth percent (SF-539)	Growth percent (HL-60(TB))	Growth percent (A498)	Growth percent (NCI-H23)	Growth percent (HCT-15)	Growth percent (SK-OV-3)	Growth percent (NCI/ADR-RES)	Growth percent (MOLT-4)	Growth percent (U251)	other results
O=c1c2cc(Cl)ccc2sc2c(O)nc3ccccc3c12 [Compound 4, 10-Chloro-6-hydroxy-12H-thiochromeno[2,3-c]quinolin-12-one]	96.92%	103.18%	101.39%	85.17%	99.80%	107.08%	116.94%	99.58%	77.89%	111.17%	78.35%	93.21%	109.82%	107.74%	88.96%	98.11%	94.40%	96.84%	100.41%	101.85%	Growth percent (SK-MEL-2): 103.04%; Growth percent (A549/ATCC): 95.25%; Growth percent (ACHN): 95.52%; Growth percent (COLO 205): 93.69%; Growth percent (SK-MEL-5): 100.69%; Growth percent (OVCAR-3): 106.37%; Growth percent (MCF7): 69.90%; Growth percent (SF-268): 95.26%; Growth percent (HCT-116): 86.20%; Growth percent (NCI-H522): 86.60%; Growth percent (UACC-62): 105.86%; Growth percent (CCRF-CEM): 107.78%; Growth percent (786-0): 99.76%
COc1nc2ccccc2c2c(=O)c3cc(Cl)ccc3sc12 [Compound 5, 10-Chloro-6-methoxy-12H-thiochromeno[2,3-c]quinolin-12-one]	101.23%	103.83%	103.05%	94.85%	104.27%	95.83%	109.68%	98.57%	68.46%	106.70%	71.44%	86.13%	89.47%	96.29%	80.14%	107.99%	58.94%	96.10%	80.62%	99.18%	Growth percent (SK-MEL-2): 105.52%; Growth percent (A549/ATCC): 100.46%; Growth percent (ACHN): 74.89%; Growth percent (COLO 205): 97.94%; Growth percent (SK-MEL-5): 99.74%; Growth percent (OVCAR-3): 96.60%; Growth percent (MCF7): 65.39%; Growth percent (SF-268): 94.12%; Growth percent (HCT-116): 89.48%; Growth percent (NCI-H522): 92.71%; Growth percent (UACC-62): 96.15%; Growth percent (CCRF-CEM): 106.56%; Growth percent (786-0): 99.15%
